Results reported in US20070254288A1, “Diagnostic methods for pain sensitivity and chronicity and for tetrahydrobiopterin-related disorders” (The General Hospital Corporation, priority 2005, published 2007).
“Also recorded” adds a separate entry of the source.

Experiments:
serotonin = assay: Serotonin concentrations in spinal cord and brain stem; type: in vivo, rat; conditions: data not shown
[1] = tested on: BH4 synthesis (GTP cyclohydrolase activity); assay: Tissue concentrations of neopterin and biopterin in L4/5 DRGs (LC/MS-MS); type: in vivo, rat; conditions: single 180 mg/kg i.p. 3 hours before dissection, 180 mg/kg
Method: Homogenized tissue was oxidized with iodine, and pteridines were extracted on Oasis MCX cartridges. Concentrations of total biopterin, neopterin, and the internal standard rhamnopterin were determined by LC/MS-MS. LC analysis under gradient conditions on a Nucleosil C8 column; MS-MS analyses on an API 4000 Q TRAP triple quadrupole mass spectrometer. Precursor-to-product ion transitions of m/z 236→192 for biopterin, m/z 252→192 for neopterin, m/z 265→192 for rhamnopterin were used for the MRM. Linearity from 0.1-50 ng/ml. The coefficient of correlation for all measured sequences was at least 0.99. The intra-day and inter-day variability was <10%.

[2] = Plasma and CSF concentrations of DAHP (LC/MS-MS); type: in vivo, rat; conditions: after i.p. injection of 180 mg/kg; compared with IC50 range 100-300 μM
Method: Concentrations of DAHP were determined LC/MS-MS on a tandem quadrupole mass spectrometer (PE Sciex API 3000; Applied Biosystems). Extraction was by acetonitrile precipitation; chromatographic separation was performed on a Nucleosil C18 Nautilus column (125×4 mm I.D., 5 μm particle size, 100 Å pore size). Mobile phase was acetonitrile:water (80:20%, v/v), and formic acid (0.1%, v/v). Flow rate was 0.2 ml/min, and injection volume was 5 μl. DAHP eluted at 4.7 min. Mass spectrometer in positive ion mode, 5200 V, 400° C., auxiliary gas flow 6 l/min. The mass transition for the MRM was m/z 127→60. Quantification with Analyst software V1.1 (Applied Biosystems). Coefficient of variation over the calibration range of 10-4000 ng/ml <5%.

Sprague Dawley rats [3] = assay: CFA-induced paw inflammation: thermal hyperalgesia (Hargreaves); type: in vivo, rat
Method: (§1) Adult male Sprague Dawley rats (150-200 g, Charles River Laboratories) were used. For the SNI model two branches of the sciatic nerve, the common peroneal and the tibial nerve, were ligated and sectioned distally. For the CCI model the sciatic nerve was constricted with three Dexon 4/0 ligatures. For the SNL model, the L5 spinal nerve was tightly ligated. All surgical procedures were under isoflurane anesthesia. For the Formalin test 50 μl of 5% formaldehyde solution were injected into a hindpaw and flinches were counted per minute up to 60 min. Paw inflammation was induced with 50 μl complete Freund's adjuvant (CFA) injected into a hindpaw. Nociceptive analysis was done blinded, and animals were fully habituated to the room and test cages. Mechanical allodynia was assessed with graded strength monofilament von Frey hairs (0.0174-20.9 gram, log scaled), cold allodynia with the acetone test and heat hyperalgesia with the Hargreaves test. […]
(§2) For the Formalin test 50 μl of 5% formaldehyde solution were injected into one hindpaw and flinches were counted per minute up to 60 min. […]
(§3) Animals were fully habituated and experiments performed blinded. Threshold for eliciting a withdrawal reflex to graded strength monofilament von Frey hairs (0.0174-20.9 g) was measured to assess mechanical allodynia. To measure cold allodynia, a drop of acetone was applied to the plantar hindpaw, and the time the animal spent licking, shaking or lifting the paw was measured (Tegeder et al., J Neurosci 24:1637-1645 (2004)). Paw withdrawal latency to radiant heat (lamp with 8 V, 50 W) assessed heat evoked pain (Ugo Basile).
Data are means ±SEM. […] Areas under the “effect versus time” curves (AUC) were calculated using the linear trapezoidal rule and compared with Student's t-test or univariate analysis of variance (ANOVA) with subsequent t-tests employing a Bonferroni alpha-correction for multiple comparisons. All other data were analyzed with univariate ANOVA or ANOVA for repeated measurements. […]

Sprague Dawley rats [4] = assay: Spared nerve injury (SNI) model: mechanical (von Frey) and cold (acetone) allodynia; type: in vivo, rat
Method: (§4) Adult male Sprague Dawley rats (150-200 g, Charles River Laboratories) were used. For the SNI model two branches of the sciatic nerve, the common peroneal and the tibial nerve, were ligated and sectioned distally. For the CCI model the sciatic nerve was constricted with three Dexon 4/0 ligatures. For the SNL model, the L5 spinal nerve was tightly ligated. All surgical procedures were under isoflurane anesthesia. For the Formalin test 50 μl of 5% formaldehyde solution were injected into a hindpaw and flinches were counted per minute up to 60 min. Paw inflammation was induced with 50 μl complete Freund's adjuvant (CFA) injected into a hindpaw. Nociceptive analysis was done blinded, and animals were fully habituated to the room and test cages. Mechanical allodynia was assessed with graded strength monofilament von Frey hairs (0.0174-20.9 gram, log scaled), cold allodynia with the acetone test and heat hyperalgesia with the Hargreaves test. Drugs (Sigma) were injected intraperitoneally or intrathecally through a spinal catheter, osmotic pumps were used for infusion. Control animals received vehicle. L4/5 DRG and spinal cord tissue was processed for QRT-PCR, Western blotting, in situ hybridization and immunofluorescence studies.
as §3
(§5) DAHP was dissolved in 1:1 polyethylene glycol (PEG400) and 1×PBS, pH 7.4 (15 mg/ml) and administered i.p. or intrathecally (250 μg/kg/h; 5 μl/h). For all i.t. injections/infusions a spinal catheter (Recathco) was used and implanted as described (Kunz et al., Pain 110:409-418 (2004)). Infusions with an osmotic pump (Alzet). 6R-BH4 in ACSF was injected i.t. (10 μg, single 10 μl injection). N-acetyl-serotonin in 1×PBS pH 7.4 containing 3% ethanol was delivered by i.t. infusion (100 μg/kg/h; 5 μl/h). Control animals received the appropriate vehicle. All drugs from Sigma-Aldrich.
Data are means ±SEM. The number of animals per group was 9-12. Areas under the “effect versus time” curves (AUC) were calculated using the linear trapezoidal rule and compared with Student's t-test or univariate analysis of variance (ANOVA) with subsequent t-tests employing a Bonferroni alpha-correction for multiple comparisons. All other data were analyzed with univariate ANOVA or ANOVA for repeated measurements. P at 0.05 for all tests.

Sprague Dawley rats [5] = assay: Spinal nerve ligation (SNL) model: mechanical and cold allodynia; type: in vivo, rat; conditions: 180 mg/kg i.p.
Method: as §1, with “Nociceptive analysis was done blinded, and animals were fully habituated to the room and test cages.” left out
as §3, with “Basile). […]” for “Basile).”

Sprague Dawley rats [6] = assay: Formalin test: flinching and cFos immunoreactive dorsal horn neurons; type: in vivo, rat
Method: as §4, §2

[7] = Observation of general well-being, body weight, gait, activity; type: in vivo, rat; conditions: acute single or daily treatment, 180 mg/kg i.p.; 180 mg/kg
Sprague Dawley rats [8] = assay: Nociceptive thresholds in naïve animals (von Frey, radiant heat); type: in vivo, rat; conditions: naïve animals, 180 mg/kg i.p.; 180 mg/kg
Method: as §3, §5

Sprague Dawley rats [9] = assay: Chronic constriction injury (CCI) model: mechanical and cold allodynia; type: in vivo, rat; conditions: 180 mg/kg i.p.
Method: as §1, with “Nociceptive analysis was done blinded, and animals were fully habituated to the room and test cages.” left out
as §3, with “Basile). […]” for “Basile).”

nitric oxide production = assay: Nitric oxide production in L4/5 DRGs after SNI; type: in vivo, rat; conditions: 7 d after SNI, once daily treatment
Rats = assay: Forced Swim Test; type: in vivo, rat; conditions: 180 mg/kg i.p., 3 injections
Method: FIGS. 8A-8D show the effects of DAHP injection. […] DAHP (250 μg/kg/h) was delivered to the lumbar spinal cord via a chronically implanted spinal catheter connected to an osmotic Alzet pump. Infusion started right after SNI surgery and continued 14 days, flow rate 5 μl/h (n=8, p<0.05). […] Effect versus time AUCs were used for statistical comparisons. […] Rats (n=7 per condition) received 3 separate injections of DAHP (180 mg/kg, i.p.), at 1 hr, 19 hrs, and 23 hrs after the first exposure to forced swimming. This commonly used treatment regimen identifies in rats agents with antidepressant or pro-depressant effects in humans (Mague et al., J Pharmacol Exp Ther 305:323-330 (2003)). Retest sessions (forced swim for 300 sec) occurred 24 hr after the first swim exposure and were videotaped from the side of the water cylinders and scored by raters unaware of the treatment condition. Rats were rated at 5 sec intervals throughout the duration of the retest session; at each 5 sec interval the predominant behavior was assigned to one of four categories: immobility, swimming, climbing, or diving. The sum of these scores are shown for each modality. For all panels, error SEM.

GTP cyclohydrolase = conditions: determined in vitro (Kolinsky and Gross 2004; Xie et al. 1998); read-out: IC50 range for GTP cyclohydrolase inhibition; cited from earlier work
GCH1 = assay: LPS induction of GCH1 in cells of haplotype carriers and non-carriers; type: cell-based, human; conditions: cells of individuals with versus without the pain protective haplotype
[10] = repeated daily injections, measured two-three hours after injection

Molecule: Nc1cc(O)nc(N)n1 [DAHP, 2,4-diamino-6-hydroxypyrimidine]
- serotonin concentrations in spinal cord and brain stem (serotonin): did not, however, significantly reduce serotonin concentrations
- biopterin levels in ipsilateral L4/5 DRGs ([1]; 24 h after CFA): reduced neopterin and biopterin; also recorded: significantly reduces elevated biopterin levels
- neopterin levels in ipsilateral L4/5 DRGs ([1]; 24 h after CFA): reduced neopterin and biopterin; also recorded: completely prevents the inflammation-evoked increase of neopterin
- biopterin levels in L4/5 DRGs ([1]; 7 days after SNI): reduced neopterin and biopterin; also recorded: significantly reduces biopterin levels
- neopterin levels in L4/5 DRGs ([1]; 7 days after SNI): reduced neopterin and biopterin; also recorded: completely prevents the nerve injury induced increases in neopterin
- plasma and CSF concentrations [2]: within the IC50 range
- thermal hyperalgesia (Sprague Dawley rats [3]; 180 mg/kg i.p., before CFA and 24 hours after CFA): significantly reduced thermal hyperalgesia; also recorded: reduce CFA-evoked heat hyperalgesia
- thermal hyperalgesia (Sprague Dawley rats [3]; single intrathecal injection of 1 mg/kg, 1 mg/kg): reduced thermal hyperalgesia
- mechanical and cold pain hypersensitivity, established (Sprague Dawley rats [4]; 180 mg/kg/d i.p. starting 17 days after nerve injury): produced a significant reduction of mechanical and cold pain hypersensitivity; also recorded: decreases pain hypersensitivity
- relative efficacy, extent of return to pre-surgery baseline values (Sprague Dawley rats [4]; SNI model, versus comparators measured earlier (Decosterd et al. 2004)): exceeds that of non-sedating doses of morphine, gabapentin, amitriptyline, and carbamazepine
- analgesia on repeated daily administration (Sprague Dawley rats [4]; SNI, repeated daily administration): continues to produce analgesia without obvious loss of activity
- dose dependence of effect on mechanical and cold allodynia (Sprague Dawley rats [4]; SNI, repeated daily i.p. injections): dose dependent efficacy; also recorded: dose-dependent reductions in mechanical and cold allodynia
- mechanical and cold allodynia (Sprague Dawley rats [4]; continuous intrathecal infusion 250 μg/kg/h, 14 days from SNI surgery): reduces mechanical and cold allodynia
- linear relationship between dose and effect (R), cold allodynia (Sprague Dawley rats [4]; [10]): 0.754
- linear relationship between dose and effect (R), mechanical allodynia (Sprague Dawley rats [4]; [10]): 0.709
- time to reversal of mechanical and cold pain hypersensitivity (Sprague Dawley rats [4]; single dose 180 mg/kg i.p. four days after SNI): ≤ 60 min
- mechanical (von Frey) and cold allodynia (Sprague Dawley rats [4]; single dose 180 mg/kg i.p. four days after SNI, 180 mg/kg): significantly reduced mechanical (von Frey) and cold allodynia; also recorded: reverses mechanical and cold pain hypersensitivity
- mechanical and cold allodynia (Sprague Dawley rats [5]): analgesic effects; also recorded: dose-dependent reductions in mechanical and cold allodynia
- formalin-induced flinching behavior (Sprague Dawley rats [6]; 180 mg/kg i.p. before formalin, first and second phases): significantly reduced formalin-induced flinching behavior in both phases; also recorded: significantly reduces the flinching behavior in the first and second phases
- number of cFos immunoreactive neurons in ipsilateral dorsal horn (Sprague Dawley rats [6]; 180 mg/kg i.p., two hours after formalin injection): reduced number of cFOS immunoreactive neurons; also recorded: significant reduction in the number of cFos immunoreactive neurons
- general well-being, body weight, gait, activity [7]: No deleterious effect; also recorded: had no effect
- mechanical threshold and radiant heat paw withdrawal latency (Sprague Dawley rats [8]): failed to modify mechanical and thermal threshold; also recorded: did not change the mechanical threshold for paw withdrawal or radiant heat evoked paw withdrawal latency
- mechanical and cold allodynia (Sprague Dawley rats [9]): analgesic effects; also recorded: dose-dependent reductions in mechanical and cold allodynia
- nitric oxide levels in L4/5 DRGs (nitric oxide production): normalization of NO levels; also recorded: prevented by DAHP treatment
- performance in the forced swim test (Rats): had no effect
- IC50 (GTP cyclohydrolase): 100 to 300 µM

Molecule: lipopolysaccharide [LPS]
- GCH1 induction (GCH1): induced GCH1 to a lesser extent
